Reference: the NIST ThermoML archive (doi:10.1021/je100362p)
Numbers after ± are expanded uncertainties.

How the values were obtained:
[1] = refractive index (Na D-line) (dimensionless); xn = mol fraction of the nth substance listed; conditions: 101 kPa, Liquid, Standard Abbe refractometry
[2] = xn = mol fraction of the nth substance listed; conditions: 101 kPa, Liquid; for speed of sound: Sing-around technique in a fixed-path interferometer

## Cc1ccccc1O [2-methylphenol] + CCCCCCCCCCO
[1]; 298.15 K, x1 = 0.0861
  refractive index: 1.43944 ± 0.00056
[1]; 298.15 K, x1 = 0.1516
  refractive index: 1.44351 ± 0.00057
[1]; 298.15 K, x1 = 0.2077
  refractive index: 1.44727 ± 0.00058
[1]; 298.15 K, x1 = 0.2717
  refractive index: 1.45185 ± 0.00061
[1]; 298.15 K, x1 = 0.334
  refractive index: 1.45667 ± 0.00063
[1]; 298.15 K, x1 = 0.4103
  refractive index: 1.46311 ± 0.00065
[1]; 298.15 K, x1 = 0.4797
  refractive index: 1.46956 ± 0.00068
[1]; 298.15 K, x1 = 0.5545
  refractive index: 1.47719 ± 0.00069
[1]; 298.15 K, x1 = 0.6165
  refractive index: 1.48412 ± 0.0007
[1]; 298.15 K, x1 = 0.6875
  refractive index: 1.49283 ± 0.00072
[1]; 298.15 K, x1 = 0.7538
  refractive index: 1.50182 ± 0.00074
[1]; 298.15 K, x1 = 0.8245
  refractive index: 1.51242 ± 0.00074
[1]; 298.15 K, x1 = 0.8811
  refractive index: 1.52175 ± 0.00074
[1]; 298.15 K, x1 = 0.941
  refractive index: 1.53252 ± 0.00075
[1]; 298.15 K, x1 = 1
  refractive index: 1.544 ± 0.0007
[1]; 303.15 K, x1 = 0.0861
  refractive index: 1.43742 ± 0.00057
[1]; 303.15 K, x1 = 0.1516
  refractive index: 1.44139 ± 0.00058
[1]; 303.15 K, x1 = 0.2077
  refractive index: 1.44505 ± 0.0006
[1]; 303.15 K, x1 = 0.2717
  refractive index: 1.44952 ± 0.00061
[1]; 303.15 K, x1 = 0.334
  refractive index: 1.45426 ± 0.00063
[1]; 303.15 K, x1 = 0.4103
  refractive index: 1.46058 ± 0.00066
[1]; 303.15 K, x1 = 0.4797
  refractive index: 1.46691 ± 0.00068
[1]; 303.15 K, x1 = 0.5545
  refractive index: 1.47444 ± 0.0007
[1]; 303.15 K, x1 = 0.6165
  refractive index: 1.48132 ± 0.00071
[1]; 303.15 K, x1 = 0.6875
  refractive index: 1.49001 ± 0.00073
[1]; 303.15 K, x1 = 0.7538
  refractive index: 1.49892 ± 0.00075
[1]; 303.15 K, x1 = 0.8245
  refractive index: 1.50948 ± 0.00076
[1]; 303.15 K, x1 = 0.8811
  refractive index: 1.51879 ± 0.00077
[1]; 303.15 K, x1 = 0.941
  refractive index: 1.52952 ± 0.00078
[1]; 303.15 K, x1 = 1
  refractive index: 1.54099 ± 0.00078
[1]; 308.15 K, x1 = 0.0861
  refractive index: 1.43507 ± 0.00057
[1]; 308.15 K, x1 = 0.1516
  refractive index: 1.43893 ± 0.00059
[1]; 308.15 K, x1 = 0.2077
  refractive index: 1.44249 ± 0.00061
[1]; 308.15 K, x1 = 0.2717
  refractive index: 1.44685 ± 0.00062
[1]; 308.15 K, x1 = 0.334
  refractive index: 1.45145 ± 0.00064
[1]; 308.15 K, x1 = 0.4103
  refractive index: 1.45761 ± 0.00066
[1]; 308.15 K, x1 = 0.4797
  refractive index: 1.46379 ± 0.00068
[1]; 308.15 K, x1 = 0.5545
  refractive index: 1.47117 ± 0.0007
[1]; 308.15 K, x1 = 0.6165
  refractive index: 1.47792 ± 0.00072
[1]; 308.15 K, x1 = 0.6875
  refractive index: 1.48643 ± 0.00075
[1]; 308.15 K, x1 = 0.7538
  refractive index: 1.49522 ± 0.00076
[1]; 308.15 K, x1 = 0.8245
  refractive index: 1.50566 ± 0.00078
[1]; 308.15 K, x1 = 0.8811
  refractive index: 1.51489 ± 0.0008
[1]; 308.15 K, x1 = 0.941
  refractive index: 1.52555 ± 0.00081
[1]; 308.15 K, x1 = 1
  refractive index: 1.53699 ± 0.00087
[2]; 298.15 K, x1 = 0.0861
  speed of sound: 1385.1 ± 1.1 m/s
  mass density: 837.502 ± 0.53 kg/m3
[2]; 298.15 K, x1 = 0.1516
  speed of sound: 1389.3 ± 1.1 m/s
  mass density: 846.353 ± 0.51 kg/m3
[2]; 298.15 K, x1 = 0.2077
  speed of sound: 1393 ± 1.1 m/s
  mass density: 854.319 ± 0.49 kg/m3
[2]; 298.15 K, x1 = 0.2717
  speed of sound: 1397.2 ± 1.1 m/s
  mass density: 863.895 ± 0.47 kg/m3
[2]; 298.15 K, x1 = 0.334
  speed of sound: 1401.6 ± 1.1 m/s
  mass density: 873.784 ± 0.45 kg/m3
[2]; 298.15 K, x1 = 0.4103
  speed of sound: 1407.6 ± 1.1 m/s
  mass density: 886.741 ± 0.43 kg/m3
[2]; 298.15 K, x1 = 0.4797
  speed of sound: 1413.7 ± 1.1 m/s
  mass density: 899.465 ± 0.4 kg/m3
[2]; 298.15 K, x1 = 0.5545
  speed of sound: 1421.3 ± 1.1 m/s
  mass density: 914.345 ± 0.37 kg/m3
[2]; 298.15 K, x1 = 0.6165
  speed of sound: 1428.4 ± 1.1 m/s
  mass density: 927.694 ± 0.34 kg/m3
[2]; 298.15 K, x1 = 0.6875
  speed of sound: 1437.8 ± 1.1 m/s
  mass density: 944.316 ± 0.31 kg/m3
[2]; 298.15 K, x1 = 0.7538
  speed of sound: 1448.2 ± 1.1 m/s
  mass density: 961.343 ± 0.28 kg/m3
[2]; 298.15 K, x1 = 0.8245
  speed of sound: 1461.2 ± 1.1 m/s
  mass density: 981.399 ± 0.24 kg/m3
[2]; 298.15 K, x1 = 0.8811
  speed of sound: 1473.5 ± 1.1 m/s
  mass density: 999.121 ± 0.2 kg/m3
[2]; 298.15 K, x1 = 0.941
  speed of sound: 1488.8 ± 1.1 m/s
  mass density: 1019.75 ± 0.24 kg/m3
[2]; 298.15 K, x1 = 1
  speed of sound: 1504.6 ± 1.1 m/s
  mass density: 1042.32 ± 0.27 kg/m3
[2]; 303.15 K, x1 = 0.0861
  speed of sound: 1368 ± 1.1 m/s
  mass density: 834.018 ± 0.54 kg/m3
[2]; 303.15 K, x1 = 0.1516
  speed of sound: 1372.1 ± 1.1 m/s
  mass density: 842.829 ± 0.52 kg/m3
[2]; 303.15 K, x1 = 0.2077
  speed of sound: 1375.7 ± 1.1 m/s
  mass density: 850.761 ± 0.5 kg/m3
[2]; 303.15 K, x1 = 0.2717
  speed of sound: 1379.9 ± 1.1 m/s
  mass density: 860.293 ± 0.48 kg/m3
[2]; 303.15 K, x1 = 0.334
  speed of sound: 1384.3 ± 1.1 m/s
  mass density: 870.135 ± 0.46 kg/m3
[2]; 303.15 K, x1 = 0.4103
  speed of sound: 1390.3 ± 1.1 m/s
  mass density: 883.035 ± 0.43 kg/m3
[2]; 303.15 K, x1 = 0.4797
  speed of sound: 1396.5 ± 1 m/s
  mass density: 895.693 ± 0.41 kg/m3
[2]; 303.15 K, x1 = 0.5545
  speed of sound: 1404 ± 1 m/s
  mass density: 910.475 ± 0.38 kg/m3
[2]; 303.15 K, x1 = 0.6165
  speed of sound: 1411.1 ± 1 m/s
  mass density: 923.735 ± 0.35 kg/m3
[2]; 303.15 K, x1 = 0.6875
  speed of sound: 1420.7 ± 1 m/s
  mass density: 940.209 ± 0.32 kg/m3
[2]; 303.15 K, x1 = 0.7538
  speed of sound: 1431 ± 1 m/s
  mass density: 957.079 ± 0.28 kg/m3
[2]; 303.15 K, x1 = 0.8245
  speed of sound: 1444 ± 1 m/s
  mass density: 976.894 ± 0.24 kg/m3
[2]; 303.15 K, x1 = 0.8811
  speed of sound: 1456.2 ± 1 m/s
  mass density: 994.379 ± 0.21 kg/m3
[2]; 303.15 K, x1 = 0.941
  speed of sound: 1471.6 ± 1.1 m/s
  mass density: 1014.71 ± 0.23 kg/m3
[2]; 303.15 K, x1 = 1
  speed of sound: 1487.4 ± 1.1 m/s
  mass density: 1036.94 ± 0.26 kg/m3
[2]; 308.15 K, x1 = 0.0861
  speed of sound: 1351.1 ± 1.1 m/s
  mass density: 830.549 ± 0.54 kg/m3
[2]; 308.15 K, x1 = 0.1516
  speed of sound: 1355.2 ± 1.1 m/s
  mass density: 839.316 ± 0.53 kg/m3
[2]; 308.15 K, x1 = 0.2077
  speed of sound: 1358.8 ± 1.1 m/s
  mass density: 847.206 ± 0.51 kg/m3
[2]; 308.15 K, x1 = 0.2717
  speed of sound: 1363.1 ± 1 m/s
  mass density: 856.691 ± 0.49 kg/m3
[2]; 308.15 K, x1 = 0.334
  speed of sound: 1367.4 ± 1 m/s
  mass density: 866.475 ± 0.47 kg/m3
[2]; 308.15 K, x1 = 0.4103
  speed of sound: 1373.2 ± 1 m/s
  mass density: 879.298 ± 0.44 kg/m3
[2]; 308.15 K, x1 = 0.4797
  speed of sound: 1379.2 ± 1 m/s
  mass density: 891.869 ± 0.41 kg/m3
[2]; 308.15 K, x1 = 0.5545
  speed of sound: 1386.8 ± 1 m/s
  mass density: 906.559 ± 0.38 kg/m3
[2]; 308.15 K, x1 = 0.6165
  speed of sound: 1394.1 ± 1 m/s
  mass density: 919.727 ± 0.36 kg/m3
[2]; 308.15 K, x1 = 0.6875
  speed of sound: 1403.7 ± 1 m/s
  mass density: 936.089 ± 0.32 kg/m3
[2]; 308.15 K, x1 = 0.7538
  speed of sound: 1414.1 ± 1 m/s
  mass density: 952.828 ± 0.29 kg/m3
[2]; 308.15 K, x1 = 0.8245
  speed of sound: 1426.8 ± 1 m/s
  mass density: 972.475 ± 0.25 kg/m3
[2]; 308.15 K, x1 = 0.8811
  speed of sound: 1439.1 ± 1 m/s
  mass density: 989.769 ± 0.22 kg/m3
[2]; 308.15 K, x1 = 0.941
  speed of sound: 1454.4 ± 1 m/s
  mass density: 1009.79 ± 0.22 kg/m3
[2]; 308.15 K, x1 = 1
  speed of sound: 1470.3 ± 1 m/s
  mass density: 1031.55 ± 0.25 kg/m3
